In patent US20090110748A1, “Biocompatible Material and Process for Manufacturing the Same” (priority 2007, published 2009):

What was measured:
[1] = test system: osteoporotic model mice; assay: Mineral concentration and ALP activity in mouse sera; type: in vivo; settings: ovariectomized ICR female mice, fed test feeds for 2 months (doses Table 4)
Protocol: (§1) For study ICR female model mice of 10 weeks (of 20 g) were used. These mice underwent ovariectomy (OVX control group) and sham operation (sham operated group), and were subsequently fed with a conventional diet for 2 months, and then divided into 6 groups, each group having 10 mice. Of these, an OVX control group and a sham operated group were fed with 1.5 to 1.8% calcium containing feed which contained calcium carbonate as a calcium source. Further as a reference group, one group was treated with a bisphosphonate preparation (risedronate), which is an anti-osteoporotic agent showing obviously higher bone density. Remaining 3 groups were fed with special feeds, containing foodstuff and food additives. Combinations of foodstuff and food additives used in the present study are shown below in Table 4.
(§2) After being fed these feeds for 2 months, mice were decapitated for blood collection. Then serum was separated from the collected blood, and after that calcium, phosphorus, and magnesium concentrations and alkaline phosphatase level of the serum were determined. Furthermore, after a resection of femurs, a three-dimensional bone densitometry and bone structure analysis were conducted on the femoral distal epiphyses and diaphyses, using pQCT (Peripheral Quantitative Computed Tomography) and μCT (micro focus X-ray CT).
Subsequently, blood was collected from the tested mice of each group, and mineral concentration and ALP activity in serum were determined. Blood collection was conducted by decapitating under a twilight sleep. The collected blood stood for 1 hour at ice temperature, and thereafter the serum was separated by a centrifuge for 10 minutes at 1000 rpm. Calcium amount was determined by chelete coloring method. 50 μL of serum was added to 5 mL of a 0.88 M monoethanolamine buffer adjusted to pH=11, and a mixture of o-cresol-phthalein complexone and 8-quinolinol as a coloring agent was further added. The resulting mixture was sufficiently stirred and stood for 5 minutes, and thereafter absorbance at 570 nm determined using a spectrometer. Phosphorus was determined by direct molybdenum blue method. After 0.2 mL of serum was added to 5 mL of a coloring agent and the resulting mixture stood for 15 minutes at room temperature, absorbance at 690 nm was determined using a spectrometer. The coloring agent was prepared by adding a surfactant to a mixture of ammonium molybdate, ammonium ferrous sulfate and sulfate. Magnesium was determined by xylidyl blue method. 3 mL of a coloring agent was added to 20 μL of serum and the resulting mixture stood for 10 minutes at room temperature, and thereafter absorbance at 520 nm was determined using a spectrometer. The coloring agent was prepared by adding a surfactant to a mixture of xylylazo violet I and ethylene glycol tetraacetic acid.
Alkaline phosphatase was determined by phenyl phosphoric acid substrate method. After 50 μL of serum was added to 2 mL of a substrate buffer and heated at 37° C. for 15 minutes, 2 mL of 36 mM potassium ferricyanide. The resulting mixture was sufficiently stirred, and thereafter absorbance at 570 nm was determined using a spectrometer. The substrate buffer was prepared by adding a mixture of 4-aminoantipyrine and phenylphosphoric acid to 50 mM carbonate buffer adjusted to pH=10.5.
In all of these determinations assay kits for clinical and biochemical use manufactured by Wako Pure Chemicals, Co., Ltd. were used.

[2] = test system: osteoporotic model mice; assay: pQCT three-dimensional bone densitometry of femoral distal epiphyses and diaphyses; type: in vivo, mouse; settings: for Items showing a significant difference: number of the 14 pQCT parameters (epiphyses and diaphyses) differing significantly from OVX control group; for Epiphyses Bone Density, significant difference vs OVX control group / Epiphyses Cortical Bone Cross-Section, significant difference vs OVX control group / Epiphyses Cortical Bone Thickness, significant difference vs OVX control group / Epiphyses Trabecular Bone Density, significant difference vs OVX control group: femoral distal epiphyses
Protocol: as §1, §2
Subsequently, a bone mass density (mg/cm^3) as a physical quantity was analyzed separately for trabecular bones and cortical bones based on three-dimensional bone densitometry conducted using pQCT on the femoral distal epiphyses and diaphyses and cross-sectional images acquired in pQCT, and bone strength index was identified based on cortical bone width, second moment of area, and section modulus etc. Student's t-test was used for statistical treatment for comparison between the groups.

[3] = test system: osteoporotic model mice; assay: μCT three-dimensional trabecular structure analysis of femoral distal epiphyses; type: in vivo, mouse; settings: for Conclusion of 3-D image analysis: effects on bone density and trabecular structure: OVX mice, distal epiphyses and diaphyses, FIGS. 8 and 9; for Order according to the importance of the effects on improvement of trabecular bone structure: ranked after sham and risedronate groups
Protocol: as §1, §2
For an analysis of the trabecular structure, three-dimensional image data of femoral distal epiphyses were acquired using X-ray μCT (MCT-CB130F, Hitachi Medico), of 8×8 μm focus, with micro focus X-ray tube. As conditions for imaging, tube voltage was 40 kV, tube current 100 μA, and voxel size 17.8×17.8×17.8 μm, so that 50 volume data for each were acquired. Three-dimensional images were reconstructed based on the acquired 50 two-dimensional images of a trabecular bone and a cortical bone. 3D parameters were then determined on these 3D images using trabecular structure measuring software (TRI/3D-BON; RATOC System Engineering, Co., Ltd). The determined structural parameters are listed below in Table 5.
Student's t-test was used for statistical treatment for comparison between the groups. Only the parameters showing significant difference in the OVX control group are compared to those in the remaining groups.

[4] = pQCT, femoral diaphyses, p value, Student's t-test, 2 months feeding
[5] = pQCT, femoral diaphyses, p value, Student's t-test, 2 months feeding, listed as risedronate
[6] = pQCT, p value, Student's t-test, 2 months feeding
[7] = pQCT, p value, Student's t-test, 2 months feeding, listed as risedronate

SMILES | ALP activity in serum [1] | Ca in serum [1] | Mg in serum [1] | P in serum [1] | Items showing a significant difference [2] | Conclusion of 3-D image analysis: effects on bone density and trabecular structure [3] | Order according to the importance of the effects on improvement of trabecular bone structure ([3]; μCT, femoral distal epiphyses) | also measured
CC(C)=CCC/C(C)=C/CC/C(C)=C/CC/C(C)=C/CC/C(C)=C/CC/C(C)=C/CC/C(C)=C/CC1=C(C)C(=O)c2ccccc2C1=O [MK-7, Vitamin K2 (MK-7)] | 3.77 ± 1.76 BL unit | 9.34 ± 1.50 mg/dL | 2.63 ± 0.63 mg/dL | 7.12 ± 0.64 mg/dL | 4 | both effects on an increased bone density and improved trabecular structure, with the improvement in trabecular structure being prevalent effect | MK7, the composite and MK4 is arranged in this order | Diaphyses parameters, difference vs OVX control group ([2]; pQCT, femoral diaphyses, all parameters): no significant difference
O=P(O)(O)C(O)(Cc1cccnc1)P(=O)(O)O [Risedronate, risedronate] | 3.65 ± 1.26 BL unit | 9.02 ± 1.15 mg/dL | 3.12 ± 1.21 mg/dL | 6.95 ± 0.32 mg/dL | 6 | – | – | Diaphyses Cortical Bone Cross-Section, significant difference vs OVX control group [2, 4]: p < 0.05; Diaphyses Cortical Bone Thickness, significant difference vs OVX control group [2, 4]: p < 0.05; Diaphyses Cortical Bone Cross-Section, significant difference vs OVX control group [2, 5]: significant increase; Diaphyses Cortical Bone Thickness, significant difference vs OVX control group [2, 5]: significant increase; Epiphyses Bone Density, significant difference vs OVX control group [2, 6]: p < 0.01; Epiphyses Cortical Bone Cross-Section, significant difference vs OVX control group [2, 6]: p < 0.05; Epiphyses Cortical Bone Thickness, significant difference vs OVX control group [2, 6]: p < 0.05; Epiphyses Trabecular Bone Density, significant difference vs OVX control group [2, 6]: p < 0.05; Epiphyses Bone Density, significant difference vs OVX control group [2, 7]: significant increase; Epiphyses Cortical Bone Cross-Section, significant difference vs OVX control group [2, 7]: significant increase; Epiphyses Cortical Bone Thickness, significant difference vs OVX control group [2, 7]: significant increase; Epiphyses Trabecular Bone Density, significant difference vs OVX control group [2, 7]: significant increase; Number of parameters with significant effects on improvement of trabecular bone structure ([3]; μCT, femoral distal epiphyses, vs OVX control group (Table 9)): 12
CC(C)=CCC/C(C)=C/CC/C(C)=C/CC/C(C)=C/CC1=C(C)C(=O)c2ccccc2C1=O [MK-4, Vitamin K2 (MK-4)] | 3.52 ± 1.82 BL unit | 9.60 ± 0.51 mg/dL | 2.67 ± 0.28 mg/dL | 6.96 ± 0.44 mg/dL | 2 | improvement in bone internal structure was observed as a prevalent effect | MK7, the composite and MK4 is arranged in this order | Diaphyses Trabecular Bone Density, significant difference vs OVX control group [2, 4]: p < 0.05
